# Measurements from ChEMBL document CHEMBL4680144, “N-thiadiazole-4-hydroxy-2-quinolone-3-carboxamides bearing heteroaromatic rings as novel antibacterial agents: Design, synthesis, biological evaluation and target identification” (Eur J Med Chem, 2020).
# Columns and labels:
# Enterococcus faecalis [1] = experiment: Antibacterial activity against Enterococcus faecalis clinical isolate 15-2 assessed as inhibition of bacterial growth incubated for 18 to 24 hrs by broth microdilution method; format: functional; details: time 18-24 hrs
# [2] = Inhibition of Staphylococcus aureus Gyrase B using linear pBR322 DNA as substrate incubated for 30 mins in presence of ATP by ADP-Glo assay
# Staphylococcus aureus [3] = experiment: Antibacterial activity against methicillin-resistant Staphylococcus aureus clinical isolate 15-6 assessed as inhibition of bacterial growth incubated for 18 to 24 hrs by broth microdilution method; format: functional; details: time 18-24 hrs
# Enterococcus faecalis [4] = experiment: Antibacterial activity against vancomycin-resistant Enterococcus faecalis ATCC 51299 assessed as inhibition of bacterial growth incubated for 18 to 24 hrs by broth microdilution method; format: functional; details: time 18-24 hrs
# Enterococcus faecalis [5] = experiment: Antibacterial activity against vancomycin-resistant Enterococcus faecalis ATCC 700802 assessed as inhibition of bacterial growth incubated for 18 to 24 hrs by broth microdilution method; format: functional; details: time 18-24 hrs
# Enterococcus faecalis [6] = experiment: Antibacterial activity against vancomycin-resistant Enterococcus faecalis ATCC 51575 assessed as inhibition of bacterial growth incubated for 18 to 24 hrs by broth microdilution method; format: functional; details: time 18-24 hrs
# [7] = tested on: Staphylococcus epidermidis; experiment: Antibacterial activity against methicillin-sensitive Staphylococcus epidermidis clinical isolate 15-3 assessed as inhibition of bacterial growth incubated for 18 to 24 hrs by broth microdilution method; format: functional; details: time 18-24 hrs
# Staphylococcus aureus [8] = experiment: Antibacterial activity against methicillin-resistant Staphylococcus aureus clinical isolate 15-2 assessed as inhibition of bacterial growth incubated for 18 to 24 hrs by broth microdilution method; format: functional; details: time 18-24 hrs
# Staphylococcus aureus [9] = experiment: Antibacterial activity against methicillin resistant and vancomycin-intermediate sensitive Staphylococcus aureus ATCC 700788 assessed as inhibition of bacterial growth incubated for 18 to 24 hrs by broth microdilution method; format: functional; details: time 18-24 hrs
# [10] = tested on: Staphylococcus epidermidis; experiment: Antibacterial activity against methicillin-resistant Staphylococcus epidermidis clinical isolate 15-1 assessed as inhibition of bacterial growth incubated for 18 to 24 hrs by broth microdilution method; format: functional; details: time 18-24 hrs
# Enterococcus faecium [11] = experiment: Antibacterial activity against Enterococcus faecium clinical isolate 15-2 assessed as inhibition of bacterial growth incubated for 18 to 24 hrs by broth microdilution method; format: functional; details: time 18-24 hrs
# Staphylococcus aureus [12] = experiment: Antibacterial activity against methicillin-resistant Staphylococcus aureus clinical isolate 15-8 assessed as inhibition of bacterial growth incubated for 18 to 24 hrs by broth microdilution method; format: functional; details: time 18-24 hrs
# Enterococcus faecium [13] = experiment: Antibacterial activity against Enterococcus faecium clinical isolate 15-1 assessed as inhibition of bacterial growth incubated for 18 to 24 hrs by broth microdilution method; format: functional; details: time 18-24 hrs
# [14] = tested on: Staphylococcus epidermidis; experiment: Antibacterial activity against methicillin-resistant Staphylococcus epidermidis clinical isolate 15-2 assessed as inhibition of bacterial growth incubated for 18 to 24 hrs by broth microdilution method; format: functional; details: time 18-24 hrs
# Staphylococcus aureus [15] = experiment: Antibacterial activity against methicillin-resistant Staphylococcus aureus clinical isolate 15-1 assessed as inhibition of bacterial growth incubated for 18 to 24 hrs by broth microdilution method; format: functional; details: time 18-24 hrs
# [16] = tested on: Staphylococcus epidermidis; experiment: Antibacterial activity against methicillin-sensitive Staphylococcus epidermidis clinical isolate 15-4 assessed as inhibition of bacterial growth incubated for 18 to 24 hrs by broth microdilution method; format: functional; details: time 18-24 hrs
# Enterococcus faecalis [17] = experiment: Antibacterial activity against Enterococcus faecalis clinical isolate 15-1 assessed as inhibition of bacterial growth incubated for 18 to 24 hrs by broth microdilution method; format: functional; details: time 18-24 hrs
# Staphylococcus aureus [18] = experiment: Antibacterial activity against wild type methicillin-sensitive Staphylococcus aureus ATCC 29213 assessed as inhibition of bacterial growth incubated for 18 to 24 hrs by broth microdilution method; format: functional; details: time 18-24 hrs
# Staphylococcus aureus [19] = experiment: Antibacterial activity against methicillin-resistant Staphylococcus aureus clinical isolate 15-3 assessed as inhibition of bacterial growth incubated for 18 to 24 hrs by broth microdilution method; format: functional; details: time 18-24 hrs
# Staphylococcus aureus [20] = experiment: Antibacterial activity against methicillin-resistant Staphylococcus aureus clinical isolate 15-7 assessed as inhibition of bacterial growth incubated for 18 to 24 hrs by broth microdilution method; format: functional; details: time 18-24 hrs
# Staphylococcus aureus [21] = experiment: Antibacterial activity against methicillin-resistant Staphylococcus aureus clinical isolate 15-9 assessed as inhibition of bacterial growth incubated for 18 to 24 hrs by broth microdilution method; format: functional; details: time 18-24 hrs
# Staphylococcus aureus [22] = experiment: Antibacterial activity against methicillin resistant and vancomycin-intermediate sensitive Staphylococcus aureus ATCC 700699 assessed as inhibition of bacterial growth incubated for 18 to 24 hrs by broth microdilution method; format: functional; details: time 18-24 hrs
# [23] = tested on: Staphylococcus epidermidis; experiment: Antibacterial activity against methicillin-resistant Staphylococcus epidermidis clinical isolate 15-3 assessed as inhibition of bacterial growth incubated for 18 to 24 hrs by broth microdilution method; format: functional; details: time 18-24 hrs
Structure (SMILES),MIC (Enterococcus faecalis [1]) [µg/mL],IC50 [2] [nM],MIC (Staphylococcus aureus [3]) [µg/mL],MIC (Enterococcus faecalis [4]) [µg/mL],MIC (Enterococcus faecalis [5]) [µg/mL],MIC (Enterococcus faecalis [6]) [µg/mL],MIC [7] [µg/mL],MIC (Staphylococcus aureus [8]) [µg/mL],MIC (Staphylococcus aureus [9]) [µg/mL],MIC [10] [µg/mL],MIC (Enterococcus faecium [11]) [µg/mL],MIC (Staphylococcus aureus [12]) [µg/mL],MIC (Enterococcus faecium [13]) [µg/mL],MIC [14] [µg/mL],MIC (Staphylococcus aureus [15]) [µg/mL],MIC [16] [µg/mL],MIC (Enterococcus faecalis [17]) [µg/mL],MIC (Staphylococcus aureus [18]) [µg/mL],MIC (Staphylococcus aureus [19]) [µg/mL],MIC (Staphylococcus aureus [20]) [µg/mL],also measured
CCn1c(=O)c(C(=O)Nc2nnc(C)s2)c(O)c2ccccc21,> 64,240,2,> 64,> 64,> 64,> 64,4,> 64,> 64,> 64,2,> 64,> 64,2,> 64,> 64,0.78,2,4,MIC (Staphylococcus aureus [21]): 4 µg/mL; MIC (Staphylococcus aureus [22]): > 64 µg/mL
CCn1c(=O)c(C(=O)Nc2nnc(-c3cscn3)s2)c(O)c2ccccc21,4,160,4,32,32,32,8,4,4,4,4,4,8,8,4,4,4,0.78,4,4,MIC [23]: 4 µg/mL; MIC (Staphylococcus aureus [21]): 4 µg/mL; MIC (Staphylococcus aureus [22]): 4 µg/mL
CCn1c(=O)c(C(=O)Nc2nnc(-c3cccc(OC)c3)s2)c(O)c2ccccc21,,2170,,,,,,,,,,,,,,,,1.56,,,
CCc1nnc(NC(=O)c2c(O)c3ccccc3n(CC)c2=O)s1,2,450,2,8,8,8,2,2,2,2,2,1,4,2,2,2,2,0.78,2,1,MIC [23]: 2 µg/mL; MIC (Staphylococcus aureus [21]): 1 µg/mL; MIC (Staphylococcus aureus [22]): 2 µg/mL
CCn1c(=O)c(C(=O)Nc2nnc(-c3ccc(F)cc3)s2)c(O)c2ccccc21,,2300,,,,,,,,,,,,,,,,25,,,
CCn1c(=O)c(C(=O)Nc2nnc(-c3ccn(C)n3)s2)c(O)c2ccccc21,,490,,,,,,,,,,,,,,,,3.12,,,
CCCn1c(=O)c(C(=O)Nc2nncs2)c(O)c2ccccc21,,460,,,,,,,,,,,,,,,,3.12,,,
CCOc1ccc(-c2nnc(NC(=O)c3c(O)c4ccccc4n(CC)c3=O)s2)cc1,,2300,,,,,,,,,,,,,,,,100,,,
